target: T1, dihydrolipoamide acyltransferase (DlaT) (Mycobacterium tuberculosis, UniProt P9WIS7); assay: DlaT inhibition (Dlat IC50); DTNB peroxidase assay with Lpd, DlaT and AhpD; assay type: biochemical; conditions: Dlat IC50 category
T1 sequence (P9WIS7 1-553): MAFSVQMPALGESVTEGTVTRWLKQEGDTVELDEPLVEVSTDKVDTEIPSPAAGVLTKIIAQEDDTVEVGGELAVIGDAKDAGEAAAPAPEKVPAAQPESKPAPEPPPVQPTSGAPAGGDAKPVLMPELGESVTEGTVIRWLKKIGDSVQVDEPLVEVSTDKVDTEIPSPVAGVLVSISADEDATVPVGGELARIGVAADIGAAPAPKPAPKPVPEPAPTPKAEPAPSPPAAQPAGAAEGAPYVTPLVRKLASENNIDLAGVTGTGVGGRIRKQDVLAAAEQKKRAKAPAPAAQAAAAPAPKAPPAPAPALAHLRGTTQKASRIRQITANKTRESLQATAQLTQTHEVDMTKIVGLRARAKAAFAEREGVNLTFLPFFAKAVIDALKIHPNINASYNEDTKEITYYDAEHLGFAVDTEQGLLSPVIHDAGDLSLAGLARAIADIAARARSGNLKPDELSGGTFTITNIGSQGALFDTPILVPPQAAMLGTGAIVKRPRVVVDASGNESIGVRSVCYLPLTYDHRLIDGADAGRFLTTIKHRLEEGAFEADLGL

SMILES | IC50 [µM]
Cc1cc(C)c(-c2ccc(C=C3SC(=S)N(Nc4ccccc4C(=O)O)C3=O)o2)c(C)c1 [Compound D28, 2-{4-Oxo-2-thioxo-5-[5-(2,4,6-trimethyl-phenyl)-furan-2-ylmethylene]-thiazolidin-3-ylamino}-benzoic acid] | < 10
Cc1cc(N(C)C)ccc1-c1ccc(C=C2SC(=S)N(Nc3ccccc3C(=O)O)C2=O)o1 [Compound D29, 2-{5-[5-(4-Dimethylamino-2-methyl-phenyl)-furan-2-ylmethylene]-4-oxo-2-thioxo-thiazolidin-3-ylamino}-benzoic acid] | 11 to 40
CSc1ccccc1-c1ccc(C=C2SC(=S)N(Nc3ccccc3C(=O)O)C2=O)o1 [Compound D30, 2-{5-[1-[5-(2-methylsulfanyl-phenyl)-furan-2-yl]-methylidene]-4-oxo-2-thioxo-thiazolidin-3-ylamino}-benzoic acid] | < 10
CN(C)c1ccc(-c2ccc(C=C3SC(=S)N(Nc4ccccc4C(=O)O)C3=O)o2)cc1 [Compound D31, 2-{5-[5-(4-Dimethylamino-phenyl)-furan-2-ylmethylene]-4-oxo-2-thioxo-thiazolidin-3-ylamino}-benzoic acid] | 11 to 40
O=C(O)c1ccccc1NN1C(=O)C(=Cc2ccc(-c3ccccc3Oc3ccccc3)o2)SC1=S [Compound D33, 2-{4-oxo-5-[1-[5-(2-phenoxy-phenyl)-furan-2-yl]-methylidene]-2-thioxo-thiazolidin-3-ylamino}-benzoic acid] | < 10
Cc1ccccc1-c1ccc(C=C2SC(=S)N(Nc3ccccc3C(=O)O)C2=O)s1 [Compound D34, 2-{4-oxo-2-thioxo-5-[1-(5-o-tolyl-thiophen-2-yl)-methylidene]-thiazolidin-3-ylamino}-benzoic acid] | < 10
O=C(O)c1ccccc1NN1C(=O)C(=Cc2ccc(-c3ccccc3Cl)s2)SC1=S [Compound D35, 2-{4-oxo-2-thioxo-5-[1-(5-2-chloro-thiophen-2-yl)-methylidene]-thiazolidin-3-ylamino}-benzoic acid] | < 10
O=C(O)c1ccccc1NN1C(=O)C(=Cc2ccc(-c3ccccc3F)s2)SC1=S [Compound D36, 2-{4-oxo-2-thioxo-5-[1-(5-2-fluoro-thiophen-2-yl)-methylidene]-thiazolidin-3-ylamino}-benzoic acid] | < 10
O=C(O)c1ccc(NN2C(=O)C(=Cc3ccc(-c4cccc(C(F)(F)F)c4)o3)SC2=S)cc1 [Compound D37, 4-{4-oxo-2-thioxo-5-[5-(3-trifluoromethyl-phenyl)-furan-2-ylmethylene]-thiazolidin-3-ylamino}-benzoic acid] | < 10
CCc1ccc(-c2ccc(C=C3SC(=S)N(Nc4ccccc4C(=O)O)C3=O)o2)cc1 [Compound D38, 2-{5-[1-[5-(4-ethyl-phenyl)-furan-2-yl]-methylidene]-4-oxo-2-thioxo-thiazolidin-3-ylamino}-benzoic acid] | < 10
O=C(O)c1ccccc1NN1C(=O)C(=Cc2ccc(-c3ccc(C(F)(F)F)cc3)o2)SC1=S [Compound D39, 2-{4-oxo-2-thioxo-5-[1-[5-(4-trifluoromethyl-phenyl)-furan-2-yl]-methylidene]-thiazolidin-3-ylamino}-benzoic acid] | < 10
O=C(O)c1ccccc1NN1C(=O)C(=Cc2ccc(-c3cccc(-c4ccccc4)c3)o2)SC1=S [Compound D40, 2-{5-[1-(5-biphenyl-3-yl-furan-2-yl)-methylidene]-4-oxo-2-thioxo-thiazolidin-3-ylamino}-benzoic acid] | < 10
CC(=O)Nc1ccc(-c2ccc(C=C3SC(=S)N(Nc4ccccc4C(=O)O)C3=O)o2)cc1 [Compound D41, 2-{5-[5-(4-acetylamino-phenyl)-furan-2-ylmethylene]-4-oxo-2-thioxo-thiazolidin-3-ylamino}-benzoic acid] | < 10
CC(=O)c1ccc(-c2ccc(C=C3SC(=S)N(Nc4ccccc4C(=O)O)C3=O)o2)cc1 [Compound D42, 2-{5-[1-[5-(4-acetyl-phenyl)-furan-2-yl]-methylidene]-4-oxo-2-thioxo-thiazolidin-3-ylamino}-benzoic acid] | < 10
O=C(O)c1ccccc1NN1C(=O)C(=Cc2ccc(-c3ccccc3F)o2)SC1=S [Compound D43, 2-{5-[1-[5-(2-fluoro-phenyl)-furan-2-yl]-methylidene]-4-oxo-2-thioxo-thiazolidin-3-ylamino}-benzoic acid] | < 10
O=C(O)c1ccccc1NN1C(=O)C(=Cc2ccc(-c3cccc(CO)c3)o2)SC1=S [Compound D44, 2-{5-[1-[5-(3-hydroxymethyl-phenyl)-furan-2-yl]-methylidene]-4-oxo-2-thioxo-thiazolidin-3-ylamino}-benzoic acid] | < 10
O=C(O)c1ccccc1NN1C(=O)C(=Cc2ccc(-c3ccc(F)cc3)o2)SC1=S [Compound D45, 2-{5-[1-[5-(4-fluoro-phenyl)-furan-2-yl]-methylidene]-4-oxo-2-thioxo-thiazolidin-3-ylamino}-benzoic acid] | < 10
O=C(O)c1ccccc1NN1C(=O)C(=Cc2ccc(-c3ccc(OCc4ccccc4)cc3)o2)SC1=S [Compound D48, 2-{5-[1-[5-(4-benzyloxy-phenyl)-furan-2-yl]-methylidene]-4-oxo-2-thioxo-thiazolidin-3-ylamino}-benzoic acid] | 11 to 40
CCCCOc1ccc(-c2ccc(C=C3SC(=S)N(Nc4ccccc4C(=O)O)C3=O)o2)cc1 [Compound D49, 2-{5-[1-[5-(4-butoxy-phenyl)-furan-2-yl]-methylidene]-4-oxo-2-thioxo-thiazolidin-3-ylamino}-benzoic acid] | < 10
CS(=O)(=O)c1ccc(-c2ccc(C=C3SC(=S)N(Nc4ccccc4C(=O)O)C3=O)o2)cc1 [Compound D50, 2-{5-[5-(4-methanesulfonyl-phenyl)-furan-2-ylmethylene]-4-oxo-2-thioxo-thiazolidin-3-ylamino}-benzoic acid] | < 10
Cc1ccccc1-c1ccc(C=C2SC(=S)N(Nc3ccccc3C(=O)O)C2=O)o1 [Compound D51, 2-{4-oxo-2-thioxo-5-[1-(5-o-tolyl-furan-2-yl)-methylidene]-thiazolidin-3-ylamino}-benzoic acid] | < 10
CSc1cccc(-c2ccc(C=C3SC(=S)N(Nc4ccccc4C(=O)O)C3=O)o2)c1 [Compound D52, 2-{5-[1-[5-(3-methylsulfanyl-phenyl)-furan-2-yl]-methylidene]-4-oxo-2-thioxo-thiazolidin-3-ylamino}-benzoic acid] | < 10
CSc1ccc(-c2ccc(C=C3SC(=S)N(Nc4ccccc4C(=O)O)C3=O)o2)cc1 [Compound D53, 2-{5-[1-[5-(4-methylsulfanyl-phenyl)-furan-2-yl]-methylidene]-4-oxo-2-thioxo-thiazolidin-3-ylamino}-benzoic acid] | 11 to 40
CC(C)Oc1ccc(-c2ccc(C=C3SC(=S)N(Nc4ccccc4C(=O)O)C3=O)o2)cc1 [Compound D54, 2-{5-[5-(4-isopropoxy-phenyl)-furan-2-ylmethylene]-4-oxo-2-thioxo-thiazolidin-3-ylamino}-benzoic acid] | < 10
Cc1ccc(-c2cccc(C=C3SC(=S)N(Nc4ccccc4C(=O)O)C3=O)c2)cc1 [Compound D55, 2-{5-[1-(4′-methyl-biphenyl-3-yl)-methylidene]-4-oxo-2-thioxo-thiazolidin-3-ylamino}-benzoic acid] | < 10
Cc1ccc(-c2ccc(C=C3SC(=S)N(Nc4ccccc4C(=O)O)C3=O)cc2)cc1 [Compound D56, 2-{5-[1-(4′-methyl-biphenyl-4-yl)-methylidene]-4-oxo-2-thioxo-thiazolidin-3-ylamino}-benzoic acid] | 11 to 40
O=C(O)c1ccccc1NN1C(=O)C(=Cc2ccc(-c3ccccc3-c3ccccc3)o2)SC1=S [Compound D57, 2-{5-[1-(5-biphenyl-2-yl-furan-2-yl)-methylidene]-4-oxo-2-thioxo-thiazolidin-3-ylamino}-benzoic acid] | < 10
CCc1ccccc1-c1ccc(C=C2SC(=S)N(Nc3ccccc3C(=O)O)C2=O)o1 [Compound D58, 2-{5-[1-[5-(2-ethyl-phenyl)-furan-2-yl]-methylidene]-4-oxo-2-thioxo-thiazolidin-3-ylamino}-benzoic acid] | < 10
CCCCc1ccc(-c2ccc(C=C3SC(=S)N(Nc4ccccc4C(=O)O)C3=O)o2)cc1 [Compound D59, 2-{5-[1-[5-(4-butyl-phenyl)-furan-2-yl]-methylidene]-4-oxo-2-thioxo-thiazolidin-3-ylamino}-benzoic acid] | < 10
CCCc1ccc(-c2ccc(C=C3SC(=S)N(Nc4ccccc4C(=O)O)C3=O)o2)cc1 [Compound D60, 2-{5-[1-[5-(4-propyl-phenyl)-furan-2-yl]-methylidene]-4-oxo-2-thioxo-thiazolidin-3-ylamino}-benzoic acid] | < 10

same assay, conditions: Dlat IC50 category, Table 7, Compounds G1 to G4

SMILES | IC50 [µM]
O=C(O)c1cccc(CCN2C(=O)C(=Cc3ccc(-c4ccccc4Cl)o3)SC2=S)c1 [Compound G1] | < 10
O=C(O)c1cccc(CCN2C(=O)C(=Cc3ccc(-c4cccc(C(F)(F)F)c4)o3)SC2=S)c1 [Compound G2] | < 10
O=C(O)c1cccc(CCN2C(=O)C(=Cc3ccc(-c4cc(C(F)(F)F)ccc4Cl)o3)SC2=S)c1 [Compound G3] | < 10
O=C(O)c1cccc(CCN2C(=O)C(=Cc3ccc(-c4cc(Cl)ccc4Cl)o3)SC2=S)c1 [Compound G4] | < 10

same assay, conditions: read-out: Dlat IC50 category

SMILES | IC50 [µM]
O=C(O)c1cccc(CCN2C(=O)C(=Cc3ccc(-c4cc5ccccc5s4)o3)SC2=S)c1 [Compound H1] | 11 to 40
